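In this assay, cells in 96-well plates receive the compound at five concentrations for 48 hours. Endpoints are linearly interpolated between the surrounding concentrations. GI50 marks 50% less growth. TGI: concentration producing complete growth inhibition.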 Where a SMILES comes first, the peptide text is derived from it. The star is where a group is joined. Palmitoyl = CCCCCCCCCCCCCCCC(=O)*
Assays:
Assay in all cases: NCI-60 cell line screen, 48 h
[1] = tested on: ACHN renal
[2] = tested on: SF-539 CNS
[3] = tested on: OVCAR-3 ovarian
[4] = tested on: RPMI-8226 leukemia
[5] = tested on: SF-295 CNS
[6] = tested on: UACC-62 melanoma

O=C(CCSC1=NCCCN1)c1ccc(F)cc1
TGI [1]: 31.1 µM | TGI [2]: 35.9 µM | TGI [3]: > 68.2 µM | TGI [4]: 14.8 µM | TGI [5]: 97.3 µM | TGI [6]: 32.9 µM

CSc1nc2c(c(N(C)C)n1)C(O)n1c(nc3ccccc31)S2 (centres undefined)
TGI [1]: > 100 µM | TGI [2]: 77.2 µM | TGI [3]: > 63.4 µM | TGI [4]: > 100 µM | TGI [5]: > 100 µM | TGI [6]: > 100 µM

CCCCCCCCCCCCCCCC(=O)N1CCCC1C(=O)NCC(=O)NC(Cc1ccccc1)C(=O)N1CCCC1C(=O)NC(CO)C(=O)NC(Cc1ccc(O)cc1)C(=O)NC(CCCCN)C(=O)NC(CC(C)C)C(=O)NC(CCCN=C(N)N)C(=O)N1CCCC1C(=O)NCC(N)=O (centres undefined) (Palmitoyl-PGFPSYKLRPG-NH2; configuration not given here)
GI50 [2]: 20.5 µM | TGI [2]: 47.9 µM | GI50 [3]: 33.3 µM | TGI [3]: > 100 µM | GI50 [4]: 11.6 µM | TGI [4]: 29.3 µM | GI50 [5]: 26.5 µM | TGI [5]: 75.9 µM

O=C1c2cccc3cccc(c23)C(=O)N1CCCNCCCCNCCCNCCCN1C(=O)c2cccc3cccc(c23)C1=O
TGI [1]: 7.43 µM | TGI [2]: 1.94 µM | TGI [3]: 2.12 µM | TGI [5]: 22.7 µM | TGI [6]: 1.6 µM

c1ccc(C(C(=Nc2ccc(Cc3ccc(N=C(C(c4ccccc4)c4ccccc4)N4CC4)cc3)cc2)N2CC2)c2ccccc2)cc1
TGI [1]: 21.3 µM | TGI [2]: 37.8 µM | TGI [3]: 24.6 µM | TGI [4]: 39.5 µM | TGI [5]: 27.5 µM | TGI [6]: 21.7 µM

CC(C)(CO)CNc1nc(N)nc(Cl)c1/C=N/O
TGI [1]: > 100 µM | TGI [2]: > 100 µM | TGI [3]: > 100 µM | TGI [4]: > 100 µM | TGI [5]: > 100 µM | TGI [6]: > 100 µM

O=c1onc2n1-c1cc(Cl)ccc1C(=S)N1CSCC21 (centres undefined)
TGI [1]: > 100 µM | TGI [3]: > 100 µM | TGI [4]: > 100 µM | TGI [5]: > 100 µM | TGI [6]: > 100 µM

Cc1cc(C)nc(NC(=S)Nc2ccc([N+](=O)[O-])cc2)c1
TGI [1]: > 100 µM | TGI [2]: > 100 µM | TGI [4]: > 100 µM | TGI [6]: > 100 µM

CC(C)(C)OC(=O)NC(CSSCC(NC(=O)OC(C)(C)C)C(=O)O)C(=O)O (centres undefined)
TGI [1]: > 100 µM | TGI [2]: > 100 µM | TGI [3]: > 100 µM | TGI [4]: > 100 µM | TGI [5]: > 100 µM | TGI [6]: > 100 µM

Nc1ncnc2c1ccn2C/C=C/CO
TGI [1]: > 100 µM | TGI [2]: > 100 µM | TGI [3]: > 100 µM | TGI [4]: > 100 µM | TGI [5]: > 100 µM | TGI [6]: > 100 µM

O=C1CSC2(CC(/C=C/c3cccs3)=NN2c2cccc(S(=O)(=O)O)c2)N1c1nc2ccccc2s1 (centres undefined)
TGI [1]: > 100 µM | TGI [2]: > 100 µM | TGI [4]: > 100 µM | TGI [6]: > 100 µM

CC(C)(C)N=C(N)NC#N
TGI [1]: > 100 µM | TGI [2]: > 100 µM | TGI [4]: > 100 µM | TGI [6]: > 100 µM

Cc1ccnc(NC(=S)Nc2ccc([N+](=O)[O-])cc2)c1
TGI [1]: > 100 µM | TGI [2]: 85.4 µM | TGI [4]: > 100 µM | TGI [5]: > 100 µM | TGI [6]: > 100 µM

Cc1ccc2c(c1)c1ccc3c(c1n2C)C(=O)C=CC3=O
TGI [1]: 3.02 µM | TGI [2]: 4.93 µM | TGI [3]: 4.53 µM | TGI [4]: 4.2 µM | TGI [5]: > 10 µM | TGI [6]: 9.48 µM

CC(C)N1CCN(c2ccc(OCC3COC(Cn4cncn4)(c4ccc(Cl)cc4Cl)O3)cc2)CC1 (centres undefined)
TGI [1]: 47.1 µM | TGI [2]: 27.3 µM | TGI [3]: 31 µM | TGI [4]: 29.7 µM | TGI [5]: 26.6 µM | TGI [6]: 5.66 µM

C=C1C(=O)[C@@]23CC[C@@H]4[C@@]5(C)CCC[C@@]4(OC5=O)[C@@]2(C)CC[C@@H]1C3
TGI [1]: 2.64 µM | TGI [2]: 6.3 µM | TGI [3]: 3.95 µM | TGI [5]: 20.9 µM | TGI [6]: 3.3 µM

O=C(CNc1ccc(Cl)cc1Cl)Nn1c(-c2ccccc2)nc2ccccc2c1=O
TGI [1]: 37.3 µM | TGI [2]: 35.6 µM | TGI [3]: 31.3 µM | TGI [4]: 71.3 µM | TGI [5]: 30.1 µM | TGI [6]: 19.5 µM

COc1ccc(-c2nc3ccccc3c(=S)n2OC(C)=O)cc1
TGI [1]: > 25 µM | TGI [2]: > 25 µM | TGI [4]: > 25 µM | TGI [5]: > 25 µM | TGI [6]: > 25 µM

Nc1ncc2c(n1)-c1ccccc1OC2N1CCCC1 (centres undefined)
TGI [1]: > 100 µM | TGI [2]: > 100 µM | TGI [3]: > 100 µM | TGI [4]: > 100 µM | TGI [5]: > 100 µM | TGI [6]: > 100 µM

CCOC(=O)c1c2cccccc-2nc1Nc1cccc2c(C)ccnc12
TGI [1]: > 10 µM | TGI [2]: > 10 µM | TGI [3]: > 10 µM | TGI [4]: > 10 µM | TGI [5]: > 10 µM | TGI [6]: > 10 µM

C=CCn1c(=O)ccn(/C(=C/C(=O)OCC)C(=O)OCC)c1=O
TGI [1]: 13.9 µM | TGI [2]: 49.5 µM | TGI [3]: 18.2 µM | TGI [4]: 31.4 µM | TGI [5]: > 87.7 µM | TGI [6]: 29.7 µM

CCOC(=O)C(NC(=O)CC)(N1CCN(c2cc3c(cc2F)c(=O)c(C(=O)O)cn3C2CC2)CC1)C(F)(F)F (centres undefined)
TGI [1]: > 100 µM | TGI [2]: > 100 µM | TGI [3]: > 100 µM | TGI [4]: > 100 µM | TGI [5]: > 100 µM | TGI [6]: > 100 µM

CC(C(=O)COCc1ccccc1)P1(=O)OC(C)(C)CN1C(C)(C)C (centres undefined)
TGI [1]: > 100 µM | TGI [2]: > 100 µM | TGI [3]: > 100 µM | TGI [4]: > 100 µM | TGI [5]: > 100 µM | TGI [6]: > 100 µM

COc1ccc(C(=O)NCCN(C)C)c2nc3ccccc3cc12
TGI [1]: 2.5 µM | TGI [2]: 8.16 µM | TGI [3]: 9.93 µM | TGI [4]: 6.71 µM | TGI [5]: 6.34 µM | TGI [6]: 4.62 µM

CN1CCN(Cc2cc3c(nn2)-c2ccccc2C3=O)CC1
TGI [1]: 62.4 µM | TGI [2]: > 100 µM | TGI [4]: > 100 µM | TGI [5]: > 100 µM | TGI [6]: > 100 µM

COc1cccc2c1OC(c1cccc3ccccc13)C([N+](=O)[O-])=C2 (centres undefined)
TGI [1]: 3.02 µM | TGI [3]: 2.74 µM | TGI [4]: > 100 µM | TGI [5]: 4.56 µM | TGI [6]: 2.35 µM

[N-]=[N+]=CC(=O)OC(CCl)CCl
TGI [1]: > 100 µM | TGI [3]: > 100 µM | TGI [4]: > 100 µM | TGI [5]: > 100 µM | TGI [6]: > 100 µM

O=C1C(=Nc2ccc(Nc3ccccc3)cc2)Oc2ccccc21
TGI [1]: 9.93 µM | TGI [2]: 8.41 µM | TGI [3]: 4.42 µM | TGI [5]: 12.1 µM | TGI [6]: 10.7 µM

COc1ccc(/C=N/NC(=O)c2ccc(O)c(CN(C)C)c2)cc1
TGI [1]: > 100 µM | TGI [2]: > 100 µM | TGI [3]: > 100 µM | TGI [5]: > 100 µM | TGI [6]: > 100 µM

CNc1[nH]c(=S)nc2sc3c(c12)CCCC3
TGI [1]: > 75 µM | TGI [3]: > 75 µM | TGI [4]: > 75 µM | TGI [5]: > 75 µM | TGI [6]: > 75 µM

O=C(OCC(Cl)(Cl)Cl)N1CC[C@H](C2CCCCC2)C1
TGI [1]: 36.7 µM | TGI [3]: 30.3 µM | TGI [5]: 31.5 µM | TGI [6]: 52.9 µM

— PubChem BioAssay (NCI)
